Values after ≈ are worked out from the molar mass of the structure shown. Active and inactive are the calls of the source. No cut-off for these calls is given here.
Legend:
Gallus gallus [1] = species: Gallus gallus; assay: Binding affinity to hen egg white lysozyme assessed as reduction in fluorescence intensity at 1 to 7 x 10^-6 M at 310 K
Gallus gallus [2] = species: Gallus gallus; assay: Binding affinity to hen egg white lysozyme assessed as reduction in fluorescence intensity at 1 to 7 x 10^-6 M at 298 K
Gallus gallus [3] = species: Gallus gallus; assay: Binding affinity to hen egg white lysozyme assessed as Stem-Volmer dynamic quenching constant at 298 K by Stern-Volmer plot analysis
Gallus gallus [4] = species: Gallus gallus; assay: Binding affinity to hen egg white lysozyme assessed as Stem-Volmer dynamic quenching constant at 310 K by Stern-Volmer plot analysis
Gallus gallus [5] = species: Gallus gallus; assay: Binding affinity to hen egg white lysozyme assessed as quenching rate constant at 298 K by Stern-Volmer plot analysis
Gallus gallus [6] = species: Gallus gallus; assay: Binding affinity to hen egg white lysozyme assessed as quenching rate constant at 310 K by Stern-Volmer plot analysis
Gallus gallus [7] = species: Gallus gallus; assay: Binding affinity to hen egg white lysozyme assessed as effective quenching constant at 298 K by Lineweaver-Burk plot analysis
Gallus gallus [8] = species: Gallus gallus; assay: Binding affinity to hen egg white lysozyme assessed as effective quenching constant at 310 K by Lineweaver-Burk plot analysis
Gallus gallus [9] = species: Gallus gallus; assay: Binding affinity to hen egg white lysozyme at 298 K
Gallus gallus [10] = species: Gallus gallus; assay: Binding affinity to hen egg white lysozyme at 310 K
Staphylococcus aureus [11] = assay: Antibacterial activity against Staphylococcus aureus; type: functional
Gallus gallus [12] = species: Gallus gallus; assay: Binding affinity to hen egg white lysozyme in presence of 2 x10'-3 M
Staphylococcus aureus [13] = assay: Antibacterial activity against Staphylococcus aureus in presence of 25 mg/L lysozyme; type: functional

SMILES | Activity (Gallus gallus [1]) | Activity (Gallus gallus [2]) | KSV (Gallus gallus [3]) | KSV (Gallus gallus [4]) | Kq (Gallus gallus [5]) | Kq (Gallus gallus [6]) | Kq (Gallus gallus [7]) | Kq (Gallus gallus [8]) | K (Gallus gallus [9]) | K (Gallus gallus [10]) | MIC50 (Staphylococcus aureus [11]) | K (Gallus gallus [12]) | MIC50 (Staphylococcus aureus [13])
O=C(O)[C@H]1O[C@@H](Oc2cc3oc(-c4ccccc4)cc(=O)c3c(O)c2O)[C@H](O)[C@@H](O)[C@@H]1O [BAICALIN] | Active | Active | 1.25 ×10⁵ L/mol | 1.14 ×10⁵ L/mol | 1.25 ×10¹³ L/mol/s | 1.14 ×10¹³ L/mol/s | 1.74 ×10⁵ L/mol | 1.16 ×10⁵ L/mol | 2.95 ×10⁴ L/mol | 1.02 ×10⁵ L/mol | 450 µg/mL (≈ 1010 µM) | 1.17 ×10⁶ Lmol | 350 µg/mL
O=C(O)[C@H]1O[C@@H](Oc2cc3oc(-c4ccc(O)cc4)cc(=O)c3c(O)c2O)[C@H](O)[C@@H](O)[C@@H]1O [SCUTELLARIN] | Active | Active | 1.63 ×10⁵ L/mol | 1.55 ×10⁵ L/mol | 1.63 ×10¹³ L/mol/s | 1.55 ×10¹³ L/mol/s | 1.25 ×10⁵ L/mol | 1.15 ×10⁵ L/mol | 7.76 ×10⁵ L/mol | 3.98 ×10⁵ L/mol | 650 µg/mL (≈ 1410 µM) | 2.24 ×10⁶ Lmol | 500 µg/mL
O=c1cc(-c2ccccc2)oc2cc(O)c(O)c(O)c12 [BAICALEIN] | Active | Active | 2.02 ×10⁵ L/mol | 1.75 ×10⁵ L/mol | 2.02 ×10¹³ L/mol/s | 1.75 ×10¹³ L/mol/s | 1.77 ×10⁵ L/mol | 1.68 ×10⁵ L/mol | 3.39 ×10⁵ L/mol | 2.14 ×10⁵ L/mol | 550 µg/mL (≈ 2040 µM) | 1.5 ×10⁸ Lmol | 350 µg/mL
CC(C)(CO)[C@@H](O)C(=O)NCCC(=O)O |  |  | 1.04 ×10⁵ L/mol | 8.05 ×10⁴ L/mol | 1.02 ×10¹³ L/mol/s | 8.03 ×10¹² L/mol/s | 1.28 ×10⁵ L/mol | 5.27 ×10⁴ L/mol |  |  |  |  | 

— ChEMBL document CHEMBL1914392, “Comparative studies on interactions of baicalein, baicalin and scutellarin with lysozyme” (2011)
